The source of these data is US8729271B2, “Glycine transporter inhibiting substances” (Taisho Pharmaceutical Co., Ltd, priority 2010, dated 2014).

A word on the IC50: it is the concentration needed to halve the response being measured.

Values joined by “and” are separate entries in the source; they are usually repeats but may differ in a detail not shown here. Equal entries are not always repeated.

The target in one series is T1, P-glycoprotein (P-gp), Human MDR1 (Homo sapiens, UniProt P08183).
T1 construct: expressed in transfected cells; host or cells: LLC-GAS-COL 300 cells (derived from pig kidney LLC-PK1)
T1 sequence (P08183 whole entry): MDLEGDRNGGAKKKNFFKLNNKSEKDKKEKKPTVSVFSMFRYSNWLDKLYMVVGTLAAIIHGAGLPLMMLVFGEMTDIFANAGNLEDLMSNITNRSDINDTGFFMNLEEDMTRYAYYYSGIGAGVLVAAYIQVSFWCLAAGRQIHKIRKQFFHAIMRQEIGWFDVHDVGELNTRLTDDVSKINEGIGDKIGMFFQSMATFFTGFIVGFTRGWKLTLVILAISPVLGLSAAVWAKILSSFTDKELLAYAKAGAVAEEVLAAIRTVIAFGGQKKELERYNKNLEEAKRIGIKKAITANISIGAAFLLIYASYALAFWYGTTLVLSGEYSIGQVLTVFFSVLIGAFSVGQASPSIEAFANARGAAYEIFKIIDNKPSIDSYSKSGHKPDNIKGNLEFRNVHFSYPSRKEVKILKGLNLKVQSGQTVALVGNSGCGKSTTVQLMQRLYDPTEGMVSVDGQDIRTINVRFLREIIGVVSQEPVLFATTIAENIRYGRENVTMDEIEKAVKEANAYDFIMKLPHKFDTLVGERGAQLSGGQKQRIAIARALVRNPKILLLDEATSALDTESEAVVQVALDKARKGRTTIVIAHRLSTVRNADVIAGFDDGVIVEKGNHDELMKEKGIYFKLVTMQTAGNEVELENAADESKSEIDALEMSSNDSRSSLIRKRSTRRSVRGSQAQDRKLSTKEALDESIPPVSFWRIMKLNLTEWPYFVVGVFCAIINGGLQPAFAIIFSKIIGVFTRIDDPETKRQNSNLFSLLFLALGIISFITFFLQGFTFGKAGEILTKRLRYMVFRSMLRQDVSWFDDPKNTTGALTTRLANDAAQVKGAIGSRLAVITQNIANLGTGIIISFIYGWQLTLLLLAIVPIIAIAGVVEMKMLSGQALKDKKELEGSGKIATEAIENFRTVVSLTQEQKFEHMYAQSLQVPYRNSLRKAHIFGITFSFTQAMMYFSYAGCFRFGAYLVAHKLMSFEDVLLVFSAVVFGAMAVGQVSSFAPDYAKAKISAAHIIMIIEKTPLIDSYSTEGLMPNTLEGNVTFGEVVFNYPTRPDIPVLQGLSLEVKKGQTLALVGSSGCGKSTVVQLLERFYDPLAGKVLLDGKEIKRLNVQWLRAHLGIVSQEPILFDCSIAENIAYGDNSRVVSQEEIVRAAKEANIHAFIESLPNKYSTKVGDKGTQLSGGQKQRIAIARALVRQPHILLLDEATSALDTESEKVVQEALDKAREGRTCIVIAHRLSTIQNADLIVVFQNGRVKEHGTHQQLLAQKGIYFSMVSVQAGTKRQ
In words: Test for recognizability of P-gp substrate (LLC-GAS-COL 300 cells, Transwell). The format is in vitro ADME. Particulars: 10 μM; LLC-GAS-COL 300 cells (Human MDR1 in LLC-PK1); criteria of Nature Reviews Drug Discovery (2010) 9, 215-236. From the text:
In order that drugs acting on the central nervous system will develop their efficacy, their passage from the blood to the brain is generally important. While various efflux transporters are present at the blood-brain barrier to control this passage of drugs, P-glylcoprotein (P-gp) is a typical example and inhibits the passage to the brain of any drugs that serve as the substrate for P-gp. Therefore, in the development of pharmaceuticals, nonrecognizability of a candidate drug as the substrate for P-gp is the key to its passage to the brain.
A test for recognizability of P-gp substrate was performed in accordance with a modified version of the methods described in J Pharmacol. Exp. Ther. (1992) Vol. 263, No. 2, 840-845 and J Biol. Chem. (1992) Vol. 267, No. 34, 24248-24252. To be more specific, LLC-GAS-COL 300 cells (Human MDR1 expressing system derived from pig kidney derived, cultured renal epithelial cell line LLC-PK1) were cultured for 4 days on a Transwell and replaced by a Hank's balanced salt solution (HBSS) in each well just before the test. A solution of an assay compound (a DMSO solution of the compound as diluted with HBSS and adjusted to a final concentration of 10 μM) was added to the donor side of the LLC-GAS-COL 300 cells and a prescribed amount of HBSS was collected from the acceptor side at given time intervals and the concentration of the assay compound in the collected sample was measured by LC-MS/MS.
From the cumulative amount of the compound's permeation into the acceptor, the membrane permeability coefficient (×10^−6 cm/sec) was calculated for each of apical→basal mode and basal→apical mode and the recognizability of P-gp substrate was assessed in terms of the ratio between the two modes (efflux ratio).
Take `CCn1cnc(C(=O)N(Cc2ccnc(-c3ccc(F)cc3)c2)C(C)C)c1` [Compound 56]: the “recognizability as P-gp substrate (from efflux ratio basal→apical / apical→basal)” value is recorded as “not recognizable as the substrate for P-gp”.

With `CN(C)c1ccc(-c2cc(CN(C(=O)c3cn(C)cn3)C3CCC3)ccc2F)cn1` [Compound 158], the “recognizability as P-gp substrate (from efflux ratio basal→apical / apical→basal)” value is given as “not recognizable as the substrate for P-gp”.

Consider `CC(C)N(Cc1ccnc(-c2ccc(F)cc2)c1)C(=O)c1cn(C)cn1` [Compound 31], for which the “recognizability as P-gp substrate (from efflux ratio basal→apical / apical→basal)” value was “not recognizable as the substrate for P-gp”.

As to `CC(C)N(Cc1ccc(F)c(-c2cncc(F)c2)c1)C(=O)c1cn(C)cn1` [Compound 15], the “recognizability as P-gp substrate (from efflux ratio basal→apical / apical→basal)” value is “not recognizable as the substrate for P-gp”.

Take `CC(C)N(Cc1ccnc(-c2cc(F)cc(F)c2)c1)C(=O)c1cn(C)cn1` [Compound 62]: the “recognizability as P-gp substrate (from efflux ratio basal→apical / apical→basal)” value is on record as “not recognizable as the substrate for P-gp”.

On to `CC(C)CN(Cc1ccnc(-c2ccc(F)cc2)c1)C(=O)c1cn(C)cn1` [Compound 54], for which the “recognizability as P-gp substrate (from efflux ratio basal→apical / apical→basal)” value is on record as “not recognizable as the substrate for P-gp”.

Take `COCCN(Cc1ccnc(-c2cccc(OC(F)(F)F)c2)c1)C(=O)c1cn(C)cn1` [Compound 198]: the “recognizability as P-gp substrate (from efflux ratio basal→apical / apical→basal)” value is reported as “not recognizable as the substrate for P-gp”.

Consider `CC(C)N(Cc1ccc(F)c(-c2ccccn2)c1)C(=O)c1cn(C)cn1` [Compound 14], for which the “recognizability as P-gp substrate (from efflux ratio basal→apical / apical→basal)” value was “not recognizable as the substrate for P-gp”.

As for `CC(C)N(Cc1ccnc(-c2ccccc2)c1)C(=O)c1cn(C)cn1` [Compound 36], the “recognizability as P-gp substrate (from efflux ratio basal→apical / apical→basal)” value is “not recognizable as the substrate for P-gp”.

With `CC(C)N(Cc1ccc(F)c(-n2cccn2)c1)C(=O)c1cn(C)cn1` [Compound 73], the “recognizability as P-gp substrate (from efflux ratio basal→apical / apical→basal)” value is recorded as “not recognizable as the substrate for P-gp”.

Turning to `CC(C)N(Cc1ccnc(-c2ccc(OC(F)F)cc2)c1)C(=O)c1cn(C)cn1` [Compound 124], the “recognizability as P-gp substrate (from efflux ratio basal→apical / apical→basal)” value is “not recognizable as the substrate for P-gp”.

On to `CC(C)N(Cc1ccnc(-c2ccc(Cl)cc2)c1)C(=O)c1cn(C)cn1` [Compound 69], for which the “recognizability as P-gp substrate (from efflux ratio basal→apical / apical→basal)” value is listed as “not recognizable as the substrate for P-gp”.

In the case of `CC(C)N(Cc1ccc(F)c(-c2ccc(F)nc2)c1)C(=O)c1cn(C)cn1` [Compound 9], the “recognizability as P-gp substrate (from efflux ratio basal→apical / apical→basal)” value is reported as “not recognizable as the substrate for P-gp”.

For a further series, the target named is T2, human type 1 glycine transporter (GlyT1) (Homo sapiens, UniProt P48067).
T2 construct: Used in the experiment were T98G cells (glioma cells) developing a human type 1 glycine transporter of (GlyT1); endogenous in cells; host or cells: T98G human glioma cells
T2 sequence (P48067 1-706): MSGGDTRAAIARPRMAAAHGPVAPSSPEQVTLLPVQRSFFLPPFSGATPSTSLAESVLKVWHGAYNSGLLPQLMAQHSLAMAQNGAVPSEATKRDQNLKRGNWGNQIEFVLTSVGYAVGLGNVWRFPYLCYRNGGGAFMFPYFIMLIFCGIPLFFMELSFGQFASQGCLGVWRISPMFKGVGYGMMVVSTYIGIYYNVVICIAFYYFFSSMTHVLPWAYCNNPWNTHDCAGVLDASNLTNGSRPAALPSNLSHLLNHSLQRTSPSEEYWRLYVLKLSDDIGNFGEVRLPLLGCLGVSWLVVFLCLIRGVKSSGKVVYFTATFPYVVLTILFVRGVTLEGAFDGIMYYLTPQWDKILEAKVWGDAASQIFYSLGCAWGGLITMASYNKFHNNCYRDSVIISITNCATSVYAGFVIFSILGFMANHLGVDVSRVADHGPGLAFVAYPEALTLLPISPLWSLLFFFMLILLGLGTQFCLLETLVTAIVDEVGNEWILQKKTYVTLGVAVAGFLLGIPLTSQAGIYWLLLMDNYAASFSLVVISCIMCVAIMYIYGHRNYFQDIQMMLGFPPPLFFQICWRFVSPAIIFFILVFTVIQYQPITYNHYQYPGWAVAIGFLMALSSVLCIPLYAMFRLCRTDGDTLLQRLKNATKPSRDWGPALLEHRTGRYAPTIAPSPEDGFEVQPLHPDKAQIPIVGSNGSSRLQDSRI
The experiment in a line: Glycine uptake inhibition experiment ([3H]glycine uptake in T98G cells). Particulars: T98G glioma cells; [3H]glycine 250 nM; 10-min pretreatment; 15 min at room temperature; read-out: glycine uptake inhibiting activity (IC50). The format is cell-based. On the procedure: A glycine uptake inhibition experiment was conducted in accordance with the method described in Neuron, 8, 927-935, 1992. Used in the experiment were T98G cells (glioma cells) developing a human type 1 glycine transporter of (GlyT1). The T98G cells were seeded in a 96-well plate at a density of 2.0×10^4 cells per well and cultured overnight in a CO2 incubator. The test substance was first dissolved in a 100% DMSO solution and then dissolved in a 10 mM HEPES buffer solution (pH 7.4) supplemented with 150 mM sodium chloride, 1 mM calcium chloride, 5 mM potassium chloride, 1 mM magnesium chloride, 10 mM glucose, and 0.2% bovine serum albumin. After removing the cell culture medium, the test substance was subjected to a 10-min pretreatment. Thereafter, the test substance and [^3H] glycine (final concentration: 250 nM) were added to the cells and reaction was performed at room temperature for 15 minutes. After the end of the reaction, the extracellular fluid was aspirated with a manifold to remove the excess marker glycine present outside of the cells; thereafter, the cells were lysed with an aqueous solution of 0.5 M sodium hydroxide. The glycine content in the cells was determined by measuring the radioactivity in the cell lysate with a liquid scintillation counter. With the amount of glycine uptake in the presence of 10 μM ALX5407 being referred to as the nonspecific uptake, the amount of specific uptake was calculated by subtracting the amount of nonspecific uptake from the total amount of uptake in the absence of 10 μM ALX5407. In addition, glycine uptake inhibiting activity (IC50) was calculated from an inhibition curve for the concentration of the test substance ranging from 10^−9 to 10^−5 M.
It should be noted that ALX5407 is a HCl salt of N-[(3R)-3-([1,1′-biphenyl]-4-yloxy)-3-(4-fluorophenyl)propyl]-N-methylglycine.
Incidentally, Compound 56 which is recited as 2HCl salt in the above Table 1-6 was subjected to measurement as its free form in the Glycine Uptake Inhibition Experiment.
In the case of `Cc1cn(-c2cc(CN(C(=O)c3cn(C)cn3)C(C)C)ccc2F)c(C)n1` [Compound 132], the IC50 was not below 1000 nM.

Regarding `CC(C)N(Cc1ccnc(-c2ccc(F)cc2)c1)C(=O)c1c[nH]cn1` [Compound 42], the IC50 was not below 1000 nM.

Turning to `CC(C)N(Cc1ccc(F)c(-n2ccnc2)c1)C(=O)c1cn(C)cn1` [Compound 74], the IC50 was 15 nM.

As for `Cc1cnn(-c2cc(CN(C(=O)c3cn(C)cn3)C(C)C)ccc2F)c1` [Compound 121], the IC50 was found to be 160 nM.

Turning to `Cn1cnc(C(=O)N(Cc2ccnc(-c3cc(F)c(F)cc3F)c2)C2CCC2)c1` [Compound 191], the IC50 was determined as 16 nM.

Regarding `CC(C)N(Cc1ccc(F)c(-c2cccc3ncccc23)c1)C(=O)c1cn(C)cn1` [Compound 24], the IC50 was not below 1000 nM.

For the molecule `CC(C)N(Cc1ccnc(-c2ccc(OC(F)(F)F)cc2)c1)C(=O)c1c[nH]cn1` [Compound 146], the IC50 is not below 1000 nM.

Take `Cn1cnc(C(=O)N(Cc2ccnc(-c3ccc(F)c(OC(F)F)c3)c2)C2CCC2)c1` [Compound 213]: the IC50 is 3.7 nM.

Regarding `Cn1cnc(C(=O)N(Cc2csc(-c3ccc(OC(F)(F)F)cc3)n2)C2CCC2)c1` [Compound 155], the IC50 is 5.8 nM.

For `CC(C)N(Cc1noc(-c2ccc(Cl)cc2)n1)C(=O)c1cn(C)cn1` [Compound 138], the IC50 is not below 1000 nM.

As for `Cn1cnc(C(=O)N(Cc2ccnc(-c3ccc(OC(F)(F)F)cc3)c2)C2CCC2)c1` [Compound 107], the IC50 worked out at 3.5 nM.

Take `Cn1cnc(C(=O)N(Cc2ccc(F)c(-c3cc(C(F)(F)F)ncn3)c2)C2CCC2)c1` [Compound 208]: the IC50 turned out to be 14 nM.

For the molecule `Cc1cccc(C)c1-c1cc(CN(C(=O)c2cn(C)cn2)C(C)C)ccn1` [Compound 63], the IC50 was not below 1000 nM.

In the case of `Cn1cnc(C(=O)N(CCC(F)(F)F)Cc2ccnc(-c3ccc(F)cc3)c2)c1` [Compound 52], the IC50 was not below 1000 nM.

As for `CC(C)N(Cc1ccc(F)c(-c2ccc(F)nc2)c1)C(=O)c1c[nH]cn1` [Compound 141], the half-inhibitory concentration (IC50) was not below 1000 nM.

In the case of `CC(c1ccnc(-c2ccc(F)cc2)c1)N(C(=O)c1cn(C)cn1)C1CCC1` (stereo not shown) [Compound 153], the half-maximal inhibitory concentration (IC50) came out at 30 nM.

With `CC(C)N(Cc1ccc(F)c(-c2ccccn2)c1)C(=O)c1cn(C)cn1` [Compound 14], the IC50 is 18 nM.

For `Cn1cnc(C(=O)N(Cc2ccc(F)c(-c3ccc(N4CCCC4)nc3)c2)C2CCC2)c1` [Compound 161], the IC50 worked out at 12 nM.

Take `CC(C)N(Cc1ccnc(-c2cc(F)ccc2C(F)(F)F)c1)C(=O)c1cn(C)cn1` [Compound 137]: the IC50 is not below 1000 nM.

Turning to `Cn1cnc(C(=O)N(Cc2ccc(F)c(-c3ccc(F)nc3)c2)C2CCC2)c1` [Compound 120], the IC50 turned out to be 8 nM.

As for `Cc1cn(-c2cc(CN(C(=O)c3cn(C)cn3)C(C)C)ccc2F)cn1` [Compound 143], the IC50 was determined as 64 nM.

Take `CC(C)N(Cc1ccnc(-c2ccccc2OC(F)(F)F)c1)C(=O)c1cn(C)cn1` [Compound 111]: the IC50 is not below 1000 nM.

Consider `Cc1n[nH]c(C)c1-c1cc(CN(C(=O)c2cn(C)cn2)C(C)C)ccc1F` [Compound 25], for which the half-inhibitory concentration (IC50) was not below 1000 nM.

As for `Cn1cnc(C(=O)N(Cc2nc(-c3ccc(OC(F)(F)F)cc3)no2)C2CCC2)c1` [Compound 160], the IC50 amounted to 330 nM.

As to `Cn1cnc(C(=O)N(Cc2ccc(F)c(-c3cccnc3C(F)(F)F)c2)C2CCOCC2)c1` [Compound 168], the IC50 was not below 1000 nM.

Take `CCCN(Cc1cc(-c2ccccc2)ccn1)C(=O)c1cn(C)cn1` [Compound 5]: the IC50 is ≥ 1000 nM and 1400 nM.

For the molecule `CC(C)N(Cc1ccc(F)c(-c2ncc[nH]2)c1)C(=O)c1cn(C)cn1` [Compound 29], the IC50 is not below 1000 nM.
